Legend:
hippocampal neurons = test: Glutamate-induced toxicity in hippocampal cultures (MTT assay); type: cell-based, rat; conditions: glutamate 1 mM for 15 minutes, MTT after 20 h
Procedure: FIG. 38. Protective effect of CNTF on glutamate-induced toxicity in hippocampal cultures. […] Glutamate at various concentations (100-1000 uM) was added for 15 minutes, after which the cells were cultured in the absence of glutamate or CNTF for 20 h. Survival of cells at the end of the culture period was assessed by MTT assay based on the conversion of MTT (3-(4,5-dimethylthiazol-2-yl)-2,5-diphenyl tetrazolium bromide) to a purple product by vital cells. MTT dye was added to a final concentration of 0.5 mg/ml. Dyes taken up by live cells were solubilized by the addition of 0.08N HCI in isopropranol 5 hours later, and O.D. (570-650 nm) was measured.
The effect of CNTF on GABAergic neurons was dependent on the density at which the cells were plated. […] This may be due to an elevated level of neurotrophic factors in high density cultures. […] We have assessed the neurotoxic effects of various concentrations of glutamate (10-1000 μM) by means of a calorimetric MTT assay, as shown in FIG. 38. At a concentration of 1 mM, glutamate reduced cell survival to approximately 10%. In the presence of CNTF ([…]), cell survival following exposure to glutamate was enhanced.

[1] = tested on: chick embryonic spinal motorneurons; test: Survival of chick embryonic spinal motorneurons in culture; type: cell-based; set-up: key to Survival: −: not significantly different from control (survival: 8.3 ± 3.8%, mean ± SD, n = 18); ±: about 15-20% (statistically significant from each blank control, p < 0.01); + +: about 35-55%; + ++: about 55-75%; conditions: for highest survival effect of the concentration-response curve: CNTF = recombinant rat; for Survival / Motoneuron survival (%): after 3 days in culture; for Survival: one concentration per molecule, Table VI, CNTF rat, rec.; for Motoneuron survival (%): mean ± SEM (n = 4), IGF-I 1 μg/ml, Basic FGF 30 ng/ml, CNTF 1.5 ng/ml; for survival effect on motoneurons: supramaximal concentrations, NT-3 produced by transfected Cos-cells
Procedure: Motorneuron columns were dissected under a stereomicroscope from the lumbar part of the spinal cord of chick embryos on the 6th day of embryonic development and stored in cold calcium and magnesium-free Hanks balanced salt solution supplemented with glucose (4 g/l) (HBSS). The tissues were washed with HBSS and treated with 0.03% trypsin in HBSS at 37° C. for 20 min with gentle shaking, rinsed with cold HBSS and triturated mildly in 3 steps of 8-passage agitation in 1 ml of cold 0.1% soybean trypsin inhibitor (Sigma) in HBSS through a fire-polished siliconized Pasteur pipette. Each supernatant cell suspension was filtered through 50 μm-Nylon mesh, pooled and layered onto 4 ml of cold 6.8% metrizamide (Fluka) in HBSS-25 mM HEPES (pH7.4) in a 12 ml-siliconized conical glass tube. The tube was centrifuged at 400 g for 15 min at 4° C. and the intermediate layer (0.5 ml) was collected into another siliconized tube containing 6.5 ml of cold culture medium (a mixture of glucose (4 g/l)-supplemented Leibovitz's L-15 medium (Gibco), 0.15 M sodium bicarbonate, heat-inactivated and filtered horse serum and penicillin G (10^5 units/ml) at the ratio of 75:15:10:0.1, freshly prepared and buffered with 5% CO2.) After centrifugation at 100×g for 7 min at 4° C., the supernatant was removed and the cells were gently resuspended in culture medium and plated in Greiner 4-well culture dishes (well diameter, 10 mm; C. A. Greiner und Sohne GmbH, Nurtingen, West Germany) at 1000-2000 cells/well. The dishes had been precoated with poly-DL-ornithine (Sigma, 0.5 mg in 0.15 M sodium borate buffer (pH 8.3) overnight at 4° C., rinsed twice with phosphate-buffered saline (PBS) and subsequently coated with laminin (Gibco; 10 μg/ml in the serum-depleted culture medium) and placed in a 5% CO2-incubator until cell plating (5-6 hrs). Cells were incubated at 37° C. in a humidified 5% CO2- and 95% air-incubator. Samples were added one hr after plating and the culture medium changed after 24 hrs and 72 hrs. The initial cell numbers were counted 3 hrs after plating.
In some experiments motor neurons were retrogradely labeled with a fluorescent dye in vivo before cell preparation (U. Dohrman et al., 1986, Dev. Biol. 118:209-221) to identify the motor neuron cell population. A small hole was made in the shell of eggs which had been incubated for 5 days. Small pieces of rhodamine isothiocyanate crystals (Sigma) were inserted at two or three places into each hind limb thigh and the egg hole was sealed with a cellophane tape. The eggs were incubated for another 24 hrs. Some of the operated embryos were then processed for frozen sections after formaldehyde fixation. […] The other embryos were used for cell preparation using the method described above (18.1.1). After 5 hrs in culture cells were rinsed with warm HBSS, fixed with 4% formaldehyde in PBS at room temperature for 20 min, rinsed with PBS and then mounted in glycerol-PBS (1:1) with glass coverslips. Of the total cells approximately 83% were labeled and identified as motorneurons (FIG. 42.) Most of these labeled motorneurons were large cells and the rest were intermediate-size cells. No small cells were labeled. On the other hand, in experiments in which cells were not labeled with a fluorescent dye about 70% of the total cells were large phase-bright cells with round cell somas, about 20% were intermediate-size neurons (most of them may be motorneurons) and about 10% were small immature neurons (they have neuron-like processes with growth cones but have phase-dark semi-flat cell somas). Non-neuronal cells were either not present or accounted for less than 2%. Taken together, one may conclude that at least 83% of the cells are motorneurons while the remainder consists of non-labeled motorneurons, a small number of unidentified intermediate-size neurons and about 10% immature small neurons. […]

[2] = tested on: E8 chick ciliary ganglion neurons; test: Survival of dissociated E8 chick ciliary ganglion neurons; type: cell-based; conditions: cultured two days with a range of peptide concentrations
Source text: Ciliary neurotrophic factor activity may be evaluated using any CNTF-sensitive in vivo or in vitro system known in the art. For example, and not by way of limitation, in vitro systems have been developed which measure CNTF activity by quantitating 24-hour survival of embryonic (E8) chick ciliary ganglion (CG) neurons in monolayer cultures.
For example, ciliary ganglia may be collected from E8 chick embryos, dissociated (yielding approximately 20,000 cells per ganglion) and then diluted in HEBM medium containing 20 percent horse serum as described in Varon et al. (1979, Brain Res. 173:29-45). […] Culture plates may then be maintained at 37° C. in 5% CO2 for 24 hours, after which the cultures may be fixed by the addition of 200 μl 2 per cent glutaraldehyde in HEBM medium, and the number of surviving neurons may be determined visually by direct count under phase contrast microscopy. […]
Biological activity of recombinant CNTF was assayed on explants of chick embryo dorsal root ganglia (DRG) and dissociated cultures of ciliary ganglion (CG) neurons as described in Lindsay and Rohrer (1985, Devel. Biol 112:30-48). […] In explant cultures CNTF activity was determined by assessing the extent of fiber outgrowth in treated cultures compared to controls. Fiber outgrowth was scored on a scale of 0 to 5+, by comparing cultures to photographs of a dose-response of explanted DRG and NGF. […]

Compound | concentration at which the highest survival effect was obtained ([1]; 3 days in culture) | highest survival effect of the concentration-response curve ([1]; 3 days in culture) | Survival [1] | survival effect on motoneurons [1] | also measured
N[C@@H](CCC(=O)O)C(=O)O [glutamate, reference compound] |  |  |  |  | cell survival after glutamate (hippocampal neurons): approximately 10%
Acidic FGF: acidic FGF (human, rec.) | 300 ng/mL | 18% | ± (about 15-20% (statistically significant from each blank control, p < 0.01)) |  | concentration at which the highest survival effect was obtained, in the presence of 1 μg/ml heparin ([1]; 3 days in culture): 100 ng/mL; highest survival effect of the concentration-response curve, in the presence of 1 μg/ml heparin ([1]; 3 days in culture, heparin only first 24 hr): 35%
Basic FGF: basic fibroblast growth factor (human, rec.) | 30 ng/mL | 51% | + + (about 35-55%) |  | Motoneuron survival (%) [1]: 51.9 ± 3.6%; EC50 ([1]; motorneuron survival, 3 days in culture): 0.26 ng/mL
IGF-I: insulin-like growth factor I (human, rec.) | 100 ng/mL | 15% | ± (about 15-20% (statistically significant from each blank control, p < 0.01)) |  | Motoneuron survival (%) [1]: 14.5 ± 0.5 %
IGF-II: insulin-like growth factor II (human, rec.) | 300 ng/mL | 15% | ± (about 15-20% (statistically significant from each blank control, p < 0.01)) |  | 
IL-1β: IL-1β (human, rec.) |  |  | − | no discernable effect | 
Insulin: Insulin (bovine) | 25000 ng/mL | 16% | ± (about 15-20% (statistically significant from each blank control, p < 0.01)) |  | 
MVLLEQKIPENEADGMPATVGDGGLFEK (MVLLEQKIPENEADGMPATVGDGGLFEK) [28 amino acid synthetic peptide fragment] |  |  |  |  | neurotrophic activity (neuronal survival) [2]: A dose-response relationship was observed
PDGF |  |  | − | no discernable effect | 
TGFa: TGFa (human, rec.) |  |  | − | no discernable effect | 
TGFβ1: TGFβ1 (porcine, rec.) |  |  | − | no discernable effect | 
Transferrin: Transferrin (human) |  |  | − |  | 
